Measurements as given in PMC12441834, “Highly Potent and Subtype-Selective Sperm-Specific Potassium Channel SLO3 Inhibitors Display High Tissue Exposure in the Murine Female Reproductive Tract” (ACS Pharmacology & Translational Science, 2025).
Where two headings read alike, the source gives them in different places.

Experiments:
[1] = biological target: T1, hSLO2.1 (Homo sapiens, UniProt Q6UVM3); assay: SLO2.1 inhibition in HEK cells; format: cell-based; conditions: HEK293; read-out: HEK hSLO2.1 % inhib. 10 μM
T1 construct: expressed in transfected cells; host or cells: HEK
T1 sequence (Q6UVM3 1-1135): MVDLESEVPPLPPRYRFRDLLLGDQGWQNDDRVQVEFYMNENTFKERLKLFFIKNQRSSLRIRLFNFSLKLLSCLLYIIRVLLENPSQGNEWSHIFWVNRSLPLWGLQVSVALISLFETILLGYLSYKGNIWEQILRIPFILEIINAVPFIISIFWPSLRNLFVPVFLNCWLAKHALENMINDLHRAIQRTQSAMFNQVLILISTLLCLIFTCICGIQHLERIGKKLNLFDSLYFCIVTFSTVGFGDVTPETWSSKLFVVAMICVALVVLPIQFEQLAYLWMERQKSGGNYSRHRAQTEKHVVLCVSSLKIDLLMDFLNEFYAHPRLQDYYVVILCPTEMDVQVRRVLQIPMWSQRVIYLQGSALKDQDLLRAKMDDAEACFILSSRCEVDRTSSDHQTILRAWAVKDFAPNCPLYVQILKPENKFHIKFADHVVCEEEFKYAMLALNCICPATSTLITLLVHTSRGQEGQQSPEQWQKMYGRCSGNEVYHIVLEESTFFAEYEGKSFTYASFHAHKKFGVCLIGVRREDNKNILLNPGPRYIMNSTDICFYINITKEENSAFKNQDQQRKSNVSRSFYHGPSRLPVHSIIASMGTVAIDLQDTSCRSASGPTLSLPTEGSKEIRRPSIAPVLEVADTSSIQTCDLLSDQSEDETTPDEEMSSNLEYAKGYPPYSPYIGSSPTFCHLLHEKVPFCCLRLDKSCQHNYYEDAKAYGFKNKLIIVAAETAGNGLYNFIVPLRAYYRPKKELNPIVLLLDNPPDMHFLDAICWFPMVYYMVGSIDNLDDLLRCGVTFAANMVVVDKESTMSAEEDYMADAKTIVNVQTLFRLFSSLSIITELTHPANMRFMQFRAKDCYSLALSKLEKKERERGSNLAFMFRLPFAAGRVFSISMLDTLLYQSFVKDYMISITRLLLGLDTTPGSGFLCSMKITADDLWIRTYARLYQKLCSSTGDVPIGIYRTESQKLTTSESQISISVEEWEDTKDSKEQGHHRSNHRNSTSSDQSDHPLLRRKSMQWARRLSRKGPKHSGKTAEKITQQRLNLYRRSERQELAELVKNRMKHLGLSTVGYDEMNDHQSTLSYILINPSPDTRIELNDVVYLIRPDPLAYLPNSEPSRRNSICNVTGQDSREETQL

[2] = Plasma protein binding, equilibrium dialysis; format: in vitro ADME
Procedure: Determination of compounds’ fraction unbound (f u ) in plasma from mouse, rat, and human was conducted in vitro via equilibrium dialysis using HTDialysis membrane plates. Dialysis membranes were hydrated as described by the manufacturer and inserted into the HTD plate, which was assembled and prepared for sample addition by the dispensing of blank buffer (Dulbecco’s Phosphate-Buffered Saline, 100 μL/well) into the trans chamber of each membrane-split well. Each compound was diluted into plasma from each species (5 μM final concentration), which was aliquoted in triplicate in the cis chamber of the prepared HTD plate wells. The HTD plate was sealed and incubated for 6 h at 37 °C. Following incubation, each well (both cis and trans chambers) was transferred (20 μL) to the corresponding wells of a 96-shallow-well (V-bottom) plate. The daughter plates were then matrix-matched (buffer-side wells received an equal volume of plasma, and plasma-side wells received an equal volume of buffer), and an extraction solution (120 μL; acetonitrile containing 50 nM carbamazepine as an internal standard (IS)) was added to all wells of both daughter plates to precipitate protein and extract the test article. The plates were then sealed and centrifuged (3500 rcf) for 10 min at ambient temperature. Supernatant (60 μL) from each well of the daughter plates was then transferred to the corresponding wells of new daughter plates (96-shallow-well, V-bottom) containing water (Milli-Q, 60 μL/well), and the plates were sealed in preparation for liquid chromatography–tandem mass spectrometry (LC-MS/MS) analysis (see below).

[3] = In vivo IV pharmacokinetics, rat cassette; conditions: Sprague-Dawley, plasma, 0.2 mg/kg, male SD rats, 0.2 mpk IV; for Vd: read-out: Vss; for clearance: read-out: rat in vivo CLp
Procedure: In-life phase–Compounds were formulated in 12% ethanol, 48% PEG400, and 40% DMSO (v/v/v) at a concentration of 1 mg/mL and administered as a single 0.2 mg/kg IV dose (1 mL/kg) to male, Sprague–Dawley rats (n = 1; 342 g body weight) via injection into a surgically implanted jugular vein catheter. Blood samples were collected serially from a surgically implanted carotid artery catheter in each animal over multiple postadministration time points (0.033, 0.117, 0.25, 0.5, 1, 2, 4, 7, and 24 h) into chilled, K2EDTA anticoagulant-fortified tubes and immediately placed on wet ice. The blood samples were then centrifuged (1700 rcf, 5 min, 4 °C) in order to obtain plasma samples, which were stored at −80 °C until analysis by LC-MS/MS. VU6032735 was also dosed IV in C57Bl6 mice at 5 mg/kg IV to determine mouse PK. Formulation and experimental design were identical to those used for rats except that whole blood was used for analysis.
Plasma samples from the in-life phase of the study were thawed at ambient temperature (benchtop), and then, aliquots (20 μL per sample) were transferred to a 96-shallow-well (V-bottom) plate. Matrix-matched quality control (QC) samples and a standard curve of the compound (1 mg/mL DMSO stock solution) were prepared in blank rat plasma (K2EDTA-treated) via serial dilution and transferred (20 μL each) to the plate along with multiple blank plasma and tissue homogenate samples. Acetonitrile (120 μL) containing IS (10 nM carbamazepine) was added to each well of the plate to precipitate the protein. The plate was then centrifuged (4000 rcf, 5 min, ambient temperature), and the resulting supernatants (60 μL each) were transferred to a new 96-shallow-well (V-bottom) plate containing an equal volume (60 μL per well) of water (Milli-Q purified). The plate was then sealed for LC-MS/MS analysis.
Samples were analyzed via electrospray ionization (ESI) LC-MS/MS on an AB Sciex 4500 (Foster City, CA) triple-quadrupole instrument that was coupled with an Agilent 1290 Infinity Binary Pump and multisampler (Santa Clara, CA) and concentrations (ng/mL or ng/g) were determined using a matrix-matched 10-point standard curve and then converted to nM concentrations. Quantitation of compounds was performed via AB Sciex Multiquant software using the raw analyte:IS peak area ratios. The typical detection range was 0.5 ng/mL to ≥5000 ng/mL utilizing a quadratic equation regression with 1/x² weighting. Correction for dilution of all tissue samples was performed postquantitation. The corrections for dilution in the extraction buffer employed correction factors specific to each tissue weight.

[4] = human, fraction unbound, equilibrium dialysis, 5 μM, read-out: Plasma Protein Binding (fu) Human
[5] = mouse, equilibrium dialysis, 5 μM, read-out: Plasma Protein Binding (fu) Mouse
[6] = rat, equilibrium dialysis, 5 μM, read-out: Plasma Protein Binding (fu) Rat

## Cc1cc(Cl)cc2sc(O[C@H]3CCN(C(=O)CCCS(=O)(=O)c4cccc(Br)c4)C[C@H]3F)nc12 [VU6047606]
[1]
  inhibition at 10 µM: 4%
[2]; human, fraction unbound as percent, read-out: fu in human plasma
  fraction unbound at 6 h, 5 μM: < 0.01
[2]; [4]
  fraction unbound at 6 h, 5 μM: 0.001
[2]; [5]
  fraction unbound at 6 h, 5 μM: 0.0002
[2]; mouse, read-out: fu in mouse plasma
  fraction unbound at 6 h, 5 μM: < 0.01
[2]; [6]
  fraction unbound at 6 h, 5 μM: 0.001
[2]; rat, read-out: fu in rat plasma
  fraction unbound at 6 h, 5 μM: < 0.01
[3]
  AUC: 83.1 ng·h/mL
  MRT: 2.09 h
  half-life: 1.96 h
  Vd: 5.03 L/kg
  clearance: 40.1 mL/min/kg

## O=C(c1ccc(OCc2ccc(OC(F)(F)F)cc2)cc1)N1CCN(c2ccc(C(F)(F)F)cn2)CC1 [VU6032735]
[1]
  inhibition at 10 µM: 22%
[2]; [4]
  fraction unbound at 6 h, 5 μM: 0.0005
[2]; [5]
  fraction unbound at 6 h, 5 μM: 0.012
[2]; [6]
  fraction unbound at 6 h, 5 μM: 0.024
[3]
  AUC: 114 ng·h/mL
  MRT: 2.66 h
  half-life: 2.19 h
  Vd: 4.69 L/kg
  clearance: 29.3 mL/min/kg

## Cc1cc(Cl)cc2sc(O[C@@H]3CCN(C(=O)CCCS(=O)(=O)c4cccc(Br)c4)C[C@@H]3F)nc12 [VU6047608]
[2]; [4]
  fraction unbound at 6 h, 5 μM: 0.001
[2]; [5]
  fraction unbound at 6 h, 5 μM: 0.004
[2]; [6]
  fraction unbound at 6 h, 5 μM: 0.002
[3]
  AUC: 58.8 ng·h/mL
  MRT: 1.7 h
  half-life: 1.65 h
  Vd: 5.77 L/kg
  clearance: 56.7 mL/min/kg

## Cc1cc(Cl)cc2sc(OC3CCN(C(=O)CCCS(=O)(=O)c4cccc(Br)c4)CC3F)nc12 (stereo not shown) [VU6045330]
[1]
  inhibition at 10 µM: 22%

## Cc1cc(Cl)cc2sc(O[C@H]3CCN(C(=O)CCCS(=O)(=O)c4cccc(Br)c4)C[C@@H]3F)nc12 [VU6047609]
[2]; [4]
  fraction unbound at 6 h, 5 μM: 0.002
[2]; [5]
  fraction unbound at 6 h, 5 μM: 0.008
[2]; [6]
  fraction unbound at 6 h, 5 μM: 0.004
[3]
  AUC: 45.2 ng·h/mL
  MRT: 2.36 h
  half-life: 2.91 h
  Vd: 10.5 L/kg
  clearance: 73.8 mL/min/kg

## Cc1cc(Cl)cc2sc(O[C@@H]3CCN(C(=O)CCCS(=O)(=O)c4cccc(Br)c4)C[C@H]3F)nc12 [VU6047607]
[2]; [4]
  fraction unbound at 6 h, 5 μM: 0.002
[2]; [5]
  fraction unbound at 6 h, 5 μM: 0.004
[2]; [6]
  fraction unbound at 6 h, 5 μM: 0.004
[3]
  AUC: 47 ng·h/mL
  MRT: 1.58 h
  half-life: 1.8 h
  Vd: 6.75 L/kg
  clearance: 71 mL/min/kg
